System: CAR-induced swelling and thermal hyperalgesia
Experiment: Anti-hyperalgesic effect in animals (carrageenan injected into rat knee joint; swelling, Hargreaves test)
Format: in vivo
Details: intra-articular administration 30 minutes before CAR, TAC 10 μg/joint
Method: In order to induce an inflammation reaction, a carrageenan solution (CAR, 1%, 50 μl) was injected intra-articularly on one side into a rat knee joint. The uninjected side was used for control purposes. Six animals per group were used. The […] was determined by means of a micrometer screw (medial-lateral on the knee joint), and the thermal hyperalgesia was determined by means of a directed infrared light source by the Hargreaves method (Hargreaves et al., 1988) on the sole of the foot. Since the site of inflammation (knee joint) is different from the site of measurement (paw sole), use is made here of the term secondary thermal hyperalgesia, the mechanism of which is of importance for the discovery of effective analgesics.
Experimental description of thermal hyperalgesia (Hargreaves test): the experimental animal is placed in a plastic chamber on a quartz sheet. Before testing, the experimental animal is firstly given about 5-15 minutes time to familiarise itself with the environment. […] Light reflected by the paw is recorded as long as the experimental animal sits still. Withdrawal of the paw interrupts this reflection, after which the infrared light source is switched off and the time from switching on to switching off is recorded. […]

C[C@]12C=CC(=O)C=C1CC[C@H]1[C@@H]3C[C@@H](O)[C@](O)(C(=O)CO)[C@@]3(C)C[C@H](O)[C@@]12F [TAC, Triamcinolone]
CAR-induced swelling: capable of reducing the CAR-induced swelling
